Assay results taken from patent US20220016125A1, “RIBOFLAVIN FOR TREATING COLLAGENOUS TISSUES IN THE DISEASES OF JOINTS, PARTICULARLY OF INVERTEBRAL DISCS” (Albert-Ludwigs-Universitat Freiburg, priority 2018, published 2022).

How the values were obtained:
[1] = test system: collagen fibers in the transition zone between the annulus fibrosus and nucleus pulposus; assay: Riboflavin/UV crosslinking of collagen fibers in human intervertebral disc cryosections, autofluorescence microscopy; details: 10 human samples, 0.6 mm slices; 0.1 mL of 0.25% riboflavin solution twice at 30 s interval; UV 370 nm, 9 mW/cm^2, two minutes
Procedure: (§1) Five freshly frozen bovine intervertebral discs and two freshly frozen human intervertebral discs from the Anatomy department of the University of Freiburg were used for the experiments (see FIG. 6).
(§2) The intervertebral discs were thinly cut into 0.6 mm thick slices using a cryomicrotome and placed on glass plates (see FIG. 7). The thin discs arise from the transition zone between the annulus fibrosus and nucleus pulposus, which is indicated by a rectangle in FIG. 6.
(§3) A total of 10 bovine and 10 human samples were prepared and examined for the experiments.
(§4) Before treatment with riboflavin, the samples were imaged by autofluorescence microscopy to visualize the collagen fibers. The architecture, orientation and crosslinking density of the collagen fibers in the samples before treatment are shown in FIGS. 9 a) and 10 a).
(§5) To crosslink the collagen fibers, 0.1 mL of a riboflavin solution at a concentration of 0.25% was administered twice at a time interval of 30 seconds. The sample was then irradiated with UV light.
(§6) A UV radiation source with an average wavelength of 370 nm (365-375 nm) was used to irradiate the samples. […]
(§7) After the treatment, the collagen fibers were reimaged using autofluorescence microscopy in order to visualize the identical sample area. This allows changes in the crosslinking density of the collagen fibers to be detected.

[2] = test system: bovine intervertebral discs; assay: Young's modulus of fresh bovine intervertebral discs before and after UV irradiation (Biomomentum Mach-1); details: 8 mM riboflavin (riboflavin 5′-phosphate sodium salt hydrate) in PBS, 15 min soak, 365 nm UVA, 3.5 mW/cm^2, 15 minutes
Procedure: For the characterization, Young's modulus or modulus of elasticity (Akhtar et. Al 2011) was determined locally on an established device (Biomomentum Mach-1 Biomomentum Inc.; Sim et al. 2014).
Fresh bovine tails were provided from the local meat processing plant within 2 hours of slaughter. The paravertebral structure was removed (FIG. 11).
Bovine intervertebral discs (IVDs), which are attached to the vertebral body, were isolated (FIG. 12).
In order to stabilize the samples on the device, the bovine vertebral bodies with attached intervertebral discs were fixed in PMMA bone cement (FIG. 13).
With the aid of the camera of the Biomomentum device, the surface of the bovine intervertebral discs was measured with respect to their biomechanical properties (Young's modulus) (FIG. 14).
A solution with 8 mM riboflavin (riboflavin 5′-phosphate sodium salt hydrate, Sigmaaldrich) in PBS (phosphate buffered saline solution) and pH: 7.4 water (Thermofisher) was used to soak the exposed surface of the bovine intervertebral discs for 15 minutes (dark mode). Immediately afterwards, the samples were placed in the Biomomentum device for analysis (dark mode).
After the analysis, the same sample was irradiated homogeneously with 365 nm UVA light (Opsytech Dr. Groebel-UV LED series L) at 3.5 mW/cm^2 for 15 minutes. A second analysis of the previously measured positions followed.
A total of 38 measurements were carried out on 15 healthy bovine intervertebral discs.
The percentage stiffening corresponds to the percentage increase in Young's modulus after UV irradiation, compared to the value measured before UV irradiation.

[3] = test system: collagen fibers in the transition zone between the annulus fibrosus and nucleus pulposus; assay: Riboflavin/UV crosslinking of collagen fibers in bovine intervertebral disc cryosections, autofluorescence microscopy; details: 10 bovine samples, 0.6 mm slices; 0.1 mL of 0.25% riboflavin solution twice at 30 s interval; UV 370 nm, 9 mW/cm^2, two minutes
Procedure: as §1, §2, §3, §4, §5, §6, §7

[4] = compared to value before UV irradiation

In the case of `Cc1cc2nc3c(=O)[nH]c(=O)nc-3n(C[C@H](O)[C@H](O)[C@H](O)CO)c2cc1C` [riboflavin, 7,8-dimethyl-10-(D-ribit-1-yl)-isoalloxazine], the “crosslinking density of the collagen fibers” value [1] was “visually evident increase in the crosslinking density”, the “elastic properties (Young's modulus) after UV irradiation” value ([2]; 38 measurements on 15 discs) was “Stiffening or reinforcement of the elastic properties (Young's modulus) was observed in all samples” and the “maximum stiffening (percentage increase in Young's modulus after UV irradiation)” value [2, 4] was 348%. The “minimum stiffening or reinforcement (percentage increase in Young's modulus after UV irradiation)” value [2, 4] was 52% and the “crosslinking density of the collagen fibers” value [3] was “visually evident increase in the crosslinking density”.
